{"source": "patent US20080281104A1", "about": "“Membrane-Anchoring Fluorescent Probe” (THE UNIVERSITY OF TOKYO, priority 2005, published 2008)", "key": {"HeLa cells": {"tested_on": "HeLa cells", "assay": "Fluorescence intensity change of loaded cells on extracellular pH change", "format": "cell-based", "settings": "extracellular fluid pH from 7.4 to 6.7 to 6.4, loaded cells, fluorescence microscope (FIG. 5)", "description": "As a control experiment, a fluorescein ester derivative (fluorescein diacetate), which can penetrate cell membranes and undergo hydrolysis by cytoplasmic esterase to distribute fluorescein intracellularly, was loaded on the cells, then the cells were treated in the same manner."}, "[1]": {"assay": "Fluorescence time course of reaction with NO released from NOC13", "settings": "1.27 μmol/L in PBS(−), 37° C., NOC13 5, 50, 100, 500 μmol/L (FIG. 2)", "experimental": "To a 1.27 μmol/L DAF-PIPA PBS(−) solution at 37° C. was added NOC13 as a sustained release-type NO releasing agent at concentrations of 5 μmol/L, 50 μmol/L, 100 μmol/L, and 500 μmol/L, respectively, and change in the reaction with NO over time was measured."}, "HeLa cell membranes": {"tested_on": "HeLa cell membranes", "assay": "Function as NO probe on cell membrane (NOC13 addition)", "format": "cell-based", "settings": "7.5 μmol/L probe, PBS(+) pH 7.4, NOC13 100 μmol/L at 120 seconds and 1 mmol/L at 1,800 seconds, HeLa cells (FIG. 6)", "experimental": "To 1 mL of an extracellular fluid (pH 7.4, PBS (+)) loaded with DAF-PIP-DPPE (7.5 μmol/L) was added NOC13 solution (500 μL) prepared before use."}}, "data": [{"molecule": "CC(=O)Oc1ccc2c(c1)Oc1cc(OC(C)=O)ccc1C21OC(=O)c2ccccc21", "note": "[fluorescein diacetate]", "values": [{"measurement": "decrease in fluorescence intensity according to pH change of extracellular fluid", "setting": "HeLa cells", "value": "no change in fluorescence intensity"}]}, {"molecule": "DAF-piperidinic Acid [DAF-PIPA]", "values": [{"measurement": "change in fluorescence intensity on reaction with NO", "setting": "[1]", "value": "became larger in a NO concentration-dependent manner"}]}, {"molecule": "CCCCCCCCCCCCCCCC(=O)OC[C@H](COP(=O)(O)OCCNC(=O)C1CCN(C(=O)c2cc(N)c(N)cc2-c2c3ccc(=O)cc-3oc3cc(O)ccc23)CC1)OC(=O)CCCCCCCCCCCCCCC", "note": "[DAF-PIP-DPPE]", "values": [{"measurement": "fluorescence intensity change on cell membranes after NOC13", "setting": "HeLa cell membranes", "value": "Marked increase in the fluorescence intensity"}]}]}
